The target in series [1] is T1, recombinant guanylate cyclase reporter cell line (Rattus norvegicus, UniProt P20595).
T1 construct: expressed in transfected cells; host or cells: recombinant reporter cell line
T1 sequence (P20595 1-619): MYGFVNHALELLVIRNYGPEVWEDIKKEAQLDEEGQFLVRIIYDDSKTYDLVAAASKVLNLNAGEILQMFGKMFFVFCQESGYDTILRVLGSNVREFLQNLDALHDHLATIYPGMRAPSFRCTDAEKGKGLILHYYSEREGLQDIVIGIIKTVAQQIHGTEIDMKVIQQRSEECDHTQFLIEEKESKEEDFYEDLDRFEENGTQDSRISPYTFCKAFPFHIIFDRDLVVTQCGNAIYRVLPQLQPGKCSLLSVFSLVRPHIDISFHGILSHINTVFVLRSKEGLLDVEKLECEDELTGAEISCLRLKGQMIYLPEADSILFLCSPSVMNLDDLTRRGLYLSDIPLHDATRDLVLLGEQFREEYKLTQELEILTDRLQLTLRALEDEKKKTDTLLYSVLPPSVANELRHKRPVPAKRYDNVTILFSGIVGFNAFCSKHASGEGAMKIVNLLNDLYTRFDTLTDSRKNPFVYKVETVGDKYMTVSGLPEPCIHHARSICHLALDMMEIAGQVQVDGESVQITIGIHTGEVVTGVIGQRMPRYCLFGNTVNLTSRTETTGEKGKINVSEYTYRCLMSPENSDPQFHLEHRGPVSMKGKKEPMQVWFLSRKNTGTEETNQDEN
T1 sequence (P19686 1-690 partner): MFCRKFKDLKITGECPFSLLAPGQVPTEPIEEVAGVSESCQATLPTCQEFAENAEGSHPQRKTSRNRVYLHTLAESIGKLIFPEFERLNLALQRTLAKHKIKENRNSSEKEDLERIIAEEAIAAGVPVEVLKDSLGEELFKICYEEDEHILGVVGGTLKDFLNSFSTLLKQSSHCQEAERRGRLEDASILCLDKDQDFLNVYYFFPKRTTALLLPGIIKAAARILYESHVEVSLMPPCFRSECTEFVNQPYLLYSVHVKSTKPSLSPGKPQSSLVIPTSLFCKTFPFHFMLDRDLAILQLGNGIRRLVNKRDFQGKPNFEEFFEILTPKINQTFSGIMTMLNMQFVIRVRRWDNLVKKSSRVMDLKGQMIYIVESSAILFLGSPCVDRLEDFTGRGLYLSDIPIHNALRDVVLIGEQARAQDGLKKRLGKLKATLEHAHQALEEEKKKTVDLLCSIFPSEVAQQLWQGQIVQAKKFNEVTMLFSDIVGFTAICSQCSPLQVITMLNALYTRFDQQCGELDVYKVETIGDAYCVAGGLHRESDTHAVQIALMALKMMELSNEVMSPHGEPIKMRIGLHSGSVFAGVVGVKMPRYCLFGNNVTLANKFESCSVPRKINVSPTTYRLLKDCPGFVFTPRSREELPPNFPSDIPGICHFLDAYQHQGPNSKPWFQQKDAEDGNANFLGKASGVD
Kind of series: Effect on a recombinant guanylate cyclase reporter cell line. It is filed as cell-based. As to conditions: for EC50: read-out: EC50 (half maximal effective concentration). As to the method: B-1. Effect on a Recombinant Guanylate Cyclase Reporter Cell Line
The cellular activity of the compounds according to the invention was determined using a recombinant guanylate cyclase reporter cell line, as described in F. Wunder et al., Anal. Biochem. 339, 104-112 (2005).

The nature of series [2]: Pharmacokinetic parameters following intravenous and oral administration in rats. It is filed as in vivo, male Wistar rats. An excerpt: (§1) • Klaus Witte, Kai Hu, Johanna Swiatek, Claudia Müssig, Georg Ertl and Björn Lemmer: Experimental heart failure in rats: effects on cardiovascular circadian rhythms and on myocardial β-adrenergic signaling. Cardiovasc Res 47 (2): […], 2000; Kozo Okamoto: Spontaneous hypertension in rats. Int Rev Exp Pathol 7: 227-270, 1969; Maarten van den Buuse: Circadian Rhythms of Blood Pressure, Heart Rate, and Locomotor Activity in Spontaneously Hypertensive Rats as Measured With Radio-Telemetry. Physiology & Behavior 55(4): 783-787, 1994. B-5. Determination of Pharmacokinetic Parameters Following Intravenous and Oral Administration
(§2) The pharmacokinetic parameters of the compounds according to the invention were determined in male Wistar rats and/or in female beagles and/or in cynomolgus monkeys and/or in male CD-1 mice. Intravenous administration in the case of mice and rats was carried out by means of a species-specific plasma/DMSO formulation, and in the case of dogs and monkeys by means of a water/PEG400/ethanol formulation. In all species, oral administration of the dissolved substance was performed via gavage, based on a water/PEG400/ethanol formulation.
(§3) An internal standard (which may also be a chemically unrelated substance) was added to the samples of the compounds of the invention, calibration samples and qualifiers, and there followed protein precipitation by means of acetonitrile in excess. Addition of a buffer solution matched to the LC conditions, and subsequent vortexing, was followed by centrifugation at 1000 g. The supernatant was analysed by LC-MS/MS using C18 reversed-phase columns and variable mobile phase mixtures. The substances were quantified via the peak heights or areas from extracted ion chromatograms of specific selected ion monitoring experiments.
(§4) The plasma concentration/time plots determined were used to calculate the pharmacokinetic parameters such as AUC, Cmax, t1/2 (terminal half-life), F (bioavailability), MRT (mean residence time) and CL (clearance), by means of a validated pharmacokinetic calculation program.
(§5) Since the substance quantification was performed in plasma, it was necessary to determine the blood/plasma distribution of the substance in order to be able to adjust the pharmacokinetic parameters correspondingly.
(§6) For this purpose, a defined amount of substance was incubated in K3 EDTA whole blood of the species in question in a rocking roller mixer for 20 min. After centrifugation at 1000 g, the plasma concentration was measured (by means of LC-MS/MS; see above) and determined by calculating the ratio of the Cblood/Cplasma value.

Series [3] is described as follows: Pharmacokinetic parameters following intravenous and oral administration in dogs. The series is classed as in vivo, female beagles. Particulars: for bioavailability: female, beagle, dog, plasma, read-out: F (bioavailability).
Excerpt: as §1, §2, §3, §4, §5, §6

Where [4] appears, read: rats, intravenous administration.
Where [5] appears, read: rats, oral administration (p.o.).

SMILES strings stand for the structures. Structures can show the parent of a compound that is named as a salt.

With `CC(C)CN1CCN(c2ccc(-c3ccc(Cl)cc3N3CCCC(n4ncc(C(=O)O)c4C(F)F)C3)cc2)CC1` (single isomer, unassigned; enantiomer 1) [Example 1, 1-[1-{4-Chloro-4′-[4-(2-methylpropyl)piperazin-1-yl][1,1′-biphenyl]-2-yl}piperidin-3-yl]-5-(difluoromethyl)-1H-pyrazole-4-carboxylic acid hydrochloride (Enantiomer 1)], the “MEC (minimum effective concentration)” value in series [1] was determined as 2.3 nM. Also, in series [2] (setting [4]), the AUCnorm came to 1.77 kg·h/L. Also, in series [2] (setting [5]), the AUCnorm came to 0.57 kg·h/L and the “F (bioavailability)” value is reported as 31.4%.
The bioavailability is dose-corrected exposure relative to a reference, in per cent. With `CC(C)CN1CCN(c2ccc(-c3ccc(Cl)cc3N3CCCC(n4ncc(C(=O)O)c4C(F)F)C3)cc2)CC1` (single isomer, unassigned; enantiomer 2) [Example 2, 1-[1-{4-Chloro-4′-[4-(2-methylpropyl)piperazin-1-yl][1,1′-biphenyl]-2-yl}piperidin-3-yl]-5-(difluoromethyl)-1H-pyrazole-4-carboxylic acid (Enantiomer 2)], in series [1], the “MEC (minimum effective concentration)” value amounted to 1.0 nM. Besides, the EC50 in series [1] amounted to 8.6 nM. For the same molecule, the “lower plasma clearance (CLplasma) in comparison to example 174 in WO 2012/058132” value in series [2] (in rats as well as in dogs) is recorded as “up to 10 times”. The AUCnorm in series [2] (setting [4]) was determined as 7.08 kg·h/L; in series [2] (setting [5]), 3.77 kg·h/L; in series [3] (intravenous administration), 81.7 kg·h/L; in series [3] (oral administration (p.o.)) it was 67.7 kg·h/L. In addition, in series [2] (setting [5]), the “F (bioavailability)” value is 53.3%. The bioavailability in series [3] (oral administration (p.o.)) came out at 82.8%.
As to `CC(C)CN1CCN(c2ccc(-c3ccc(Cl)cc3N3CCCC(n4ncc(C(=O)O)c4C(F)F)C3)cc2)CC1` (single isomer, unassigned; enantiomer 2) [Example 3, 1-{1-[4-Chloro-4′-(4-isobutylpiperazin-1-yl)[biphenyl]-2-yl]piperidin-3-yl}-5-(difluoromethyl)-1H-pyrazole-4-carboxylic acid hydrochloride (Enantiomer 2)], in series [1], the “MEC (minimum effective concentration)” value stood at 0.6 nM and the EC50 was 2.7 nM.
As to `O=C(O)c1cnn(-c2cccc(-c3cc(Cl)ccc3-c3ccc(N4CCN(CC5CC5)CC4)cc3)n2)c1C(F)(F)F` [174 (WO2012/058132), reference compound], the bioavailability in series [2] (male, Wistar, rat, plasma, po, rats, oral administration (p.o.), read-out: F (bioavailability)) came out at 81.8%; in series [3] (oral administration (p.o.)), 41.6%. The AUCnorm in series [2] (setting [4]) came to 0.77 kg·h/L; in series [2] (setting [5]), 0.63 kg·h/L; in series [3] (intravenous administration) it was 5.00 kg·h/L; in series [3] (oral administration (p.o.)), 2.08 kg·h/L.

The values above are taken from patent publication US12595247B2, “Substituted pyrazolo piperidine carboxylic acids” (Bayer Aktiengesellschaft, priority 2020, dated 2026).
